Reference: ChEMBL document CHEMBL1201862, “PubChem BioAssay data set” (2004)
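Briefly, cells in 96-well plates were exposed to five compound concentrations for 48 h, and endpoints were estimated by linear interpolation. Here, GI50 denotes the concentration required for 50% inhibition of growth.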 Calls of active or inactive are those of the source. Rule as the data show it: active = GI50 up to about 1.1 µM and inactive = higher.

Experiments:
Assay in all cases: growth of human tumour cells (NCI), 48 h
SK-MEL-5 = test system: SK-MEL-5
DLD-1 = test system: DLD-1
HL-60 = test system: HL-60
DMS-114 = test system: DMS-114
OVCAR-5 = test system: OVCAR-5
U-251 = test system: U-251
UACC-62 = test system: UACC-62
SF-539 = test system: SF-539
Malme-3M = test system: Malme-3M
SK-MEL-2 = test system: SK-MEL-2
M14 = test system: M14
EKVX = test system: EKVX
OVCAR-3 = test system: OVCAR-3
SNB-19 = test system: SNB-19
K562 = test system: K562
XF498 = test system: XF498
HCC 2998 = test system: HCC 2998
UACC-257 = test system: UACC-257
HOP-62 = test system: HOP-62
COLO 205 = test system: COLO 205
SW-620 = test system: SW-620
IGROV-1 = test system: IGROV-1
A549 = test system: A549
RPMI-8226 = test system: RPMI-8226
HOP-92 = test system: HOP-92
LXFL 529 = test system: LXFL 529
SNB-75 = test system: SNB-75
SF-268 = test system: SF-268
NCI-H23 = test system: NCI-H23
SK-MEL-28 = test system: SK-MEL-28
CAKI-1 = test system: CAKI-1
KM-20L2 = test system: KM-20L2
HCT-116 = test system: HCT-116
NCI-H460 = test system: NCI-H460
SF-295 = test system: SF-295
HT-29 = test system: HT-29
SNB-78 = test system: SNB-78
CCRF-CEM = test system: CCRF-CEM
OVCAR-4 = test system: OVCAR-4
UO-31 = test system: UO-31
SR = test system: SR
KM12 = test system: KM12
SN12C = test system: SN12C
A498 = test system: A498
HCT-15 = test system: HCT-15
NCI-H522 = test system: NCI-H522
M19-MEL = test system: M19-MEL
ACHN = test system: ACHN
SK-OV-3 = test system: SK-OV-3
RXF 393 = test system: RXF 393
MOLT-4 = test system: MOLT-4
HOP-18 = test system: HOP-18
TK-10 = test system: TK-10
NCI-H226 = test system: NCI-H226
OVCAR-8 = test system: OVCAR-8
786-0 = test system: 786-0
DMS-273 = test system: DMS-273

Compound: O=C(O)C(Br)Cc1ccc2c(c1)OCO2 (stereo unspecified)
- GI50 (SK-MEL-5): > 100 µM (inactive)
- GI50 (DLD-1): > 100 µM (inactive)
- GI50 (HL-60): > 100 µM (inactive)
- GI50 (DMS-114): > 100 µM (inactive)
- GI50 (OVCAR-5): > 100 µM (inactive)
- GI50 (U-251): > 100 µM (inactive)
- GI50 (UACC-62): 62.1 µM (inactive)
- GI50 (SF-539): > 100 µM (inactive)
- GI50 (Malme-3M): 40.7 µM (inactive)
- GI50 (SK-MEL-2): > 100 µM (inactive)
- GI50 (M14): > 100 µM (inactive)
- GI50 (EKVX): > 100 µM (inactive)
- GI50 (OVCAR-3): > 100 µM (inactive)
- GI50 (SNB-19): > 100 µM (inactive)
- GI50 (K562): > 100 µM (inactive)
- GI50 (XF498): 24 µM (inactive)
- GI50 (HCC 2998): > 100 µM (inactive)
- GI50 (UACC-257): > 100 µM (inactive)
- GI50 (HOP-62): > 100 µM (inactive)
- GI50 (COLO 205): 55.7 µM (inactive)
- GI50 (SW-620): > 100 µM (inactive)
- GI50 (IGROV-1): > 100 µM (inactive)
- GI50 (A549): > 100 µM (inactive)
- GI50 (RPMI-8226): > 100 µM (inactive)
- GI50 (HOP-92): > 100 µM (inactive)
- GI50 (LXFL 529): > 100 µM (inactive)
- GI50 (SNB-75): 20.9 µM (inactive)
- GI50 (SF-268): > 100 µM (inactive)
- GI50 (NCI-H23): > 100 µM (inactive)
- GI50 (SK-MEL-28): > 100 µM (inactive)
- GI50 (CAKI-1): > 100 µM (inactive)
- GI50 (KM-20L2): > 100 µM (inactive)
- GI50 (HCT-116): > 100 µM (inactive)
- GI50 (NCI-H460): > 100 µM (inactive)
- GI50 (SF-295): 55.5 µM (inactive)
- GI50 (HT-29): > 100 µM (inactive)
- GI50 (SNB-78): > 100 µM (inactive)
- GI50 (CCRF-CEM): > 100 µM (inactive)
- GI50 (OVCAR-4): 88.7 µM (inactive)
- GI50 (UO-31): > 100 µM (inactive)
- GI50 (SR): > 100 µM (inactive)
- GI50 (KM12): > 100 µM (inactive)
- GI50 (SN12C): > 100 µM (inactive)
- GI50 (A498): 47.2 µM (inactive)
- GI50 (HCT-15): > 100 µM
- GI50 (NCI-H522): > 100 µM (inactive)
- GI50 (M19-MEL): 69.2 µM (inactive)
- GI50 (ACHN): > 100 µM (inactive)
- GI50 (SK-OV-3): > 100 µM (inactive)
- GI50 (RXF 393): 71.9 µM (inactive)
- GI50 (MOLT-4): > 100 µM (inactive)

Compound: C1CN2CCO[SiH](O1)OCC2
- GI50 (SK-MEL-5): > 100 µM (inactive)
- GI50 (DLD-1): > 100 µM (inactive)
- GI50 (HL-60): > 100 µM (inactive)
- GI50 (DMS-114): > 100 µM (inactive)
- GI50 (U-251): > 100 µM (inactive)
- GI50 (UACC-62): > 100 µM (inactive)
- GI50 (SF-539): > 100 µM (inactive)
- GI50 (Malme-3M): > 100 µM (inactive)
- GI50 (SK-MEL-2): > 100 µM (inactive)
- GI50 (EKVX): > 100 µM (inactive)
- GI50 (OVCAR-3): > 100 µM (inactive)
- GI50 (SNB-19): > 100 µM (inactive)
- GI50 (K562): > 100 µM (inactive)
- GI50 (HCC 2998): > 100 µM (inactive)
- GI50 (UACC-257): > 100 µM (inactive)
- GI50 (HOP-18): > 100 µM (inactive)
- GI50 (COLO 205): > 100 µM (inactive)
- GI50 (SW-620): > 100 µM (inactive)
- GI50 (IGROV-1): > 100 µM (inactive)
- GI50 (A549): > 100 µM (inactive)
- GI50 (RPMI-8226): > 100 µM (inactive)
- GI50 (LXFL 529): > 100 µM (inactive)
- GI50 (TK-10): > 100 µM (inactive)
- GI50 (SNB-75): > 100 µM (inactive)
- GI50 (SF-268): > 100 µM (inactive)
- GI50 (NCI-H226): > 100 µM (inactive)
- GI50 (NCI-H23): > 100 µM (inactive)
- GI50 (SK-MEL-28): > 100 µM (inactive)
- GI50 (CAKI-1): > 100 µM (inactive)
- GI50 (KM-20L2): > 100 µM (inactive)
- GI50 (HCT-116): > 100 µM (inactive)
- GI50 (NCI-H460): > 100 µM (inactive)
- GI50 (SF-295): > 100 µM (inactive)
- GI50 (HT-29): > 100 µM (inactive)
- GI50 (SNB-78): > 100 µM (inactive)
- GI50 (CCRF-CEM): > 100 µM (inactive)
- GI50 (UO-31): > 100 µM (inactive)
- GI50 (SR): > 100 µM (inactive)
- GI50 (KM12): > 100 µM (inactive)
- GI50 (SN12C): > 100 µM (inactive)
- GI50 (A498): > 100 µM (inactive)
- GI50 (NCI-H522): > 100 µM (inactive)
- GI50 (M19-MEL): > 100 µM (inactive)
- GI50 (ACHN): > 100 µM (inactive)
- GI50 (SK-OV-3): > 100 µM (inactive)
- GI50 (RXF 393): > 100 µM (inactive)
- GI50 (OVCAR-8): > 100 µM (inactive)
- GI50 (786-0): > 100 µM (inactive)
- GI50 (DMS-273): > 100 µM (inactive)
- GI50 (MOLT-4): > 100 µM (inactive)
